Experimental data taken from PMC12267056 (Nature, 2025).
Where “and” joins values, the source holds several entries; their conditions need not be identical. Identical values can stand only once. Like-named read-outs stand apart in the source and are kept apart here. Each block holds one molecule with its values, some of them ahead of it.

Legend:
Design in all cases: made in house; host or cells: Saccharomyces cerevisiae FGY217
[1] = target: T1, human SLC35B1 (wild type) (Homo sapiens, UniProt P78383); experiment: Competitive uptake assay: [3H]ADP uptake with 1 mM cold nucleotide; format: biochemical; settings: for Normalized SLC35B1-mediated uptake of [3H]ADP in competition with cold nucleotide: 1 mM external cold nucleotide, proteoliposomes preloaded with 1 mM ATP; for [3H]ADP uptake in the presence of cold competitor nucleotide (individual replicates; no-competitor control about 100): competitor 1mM, sheet ED 6F, SLC35B1 proteoliposomes
T1 sequence (P78383 1-322): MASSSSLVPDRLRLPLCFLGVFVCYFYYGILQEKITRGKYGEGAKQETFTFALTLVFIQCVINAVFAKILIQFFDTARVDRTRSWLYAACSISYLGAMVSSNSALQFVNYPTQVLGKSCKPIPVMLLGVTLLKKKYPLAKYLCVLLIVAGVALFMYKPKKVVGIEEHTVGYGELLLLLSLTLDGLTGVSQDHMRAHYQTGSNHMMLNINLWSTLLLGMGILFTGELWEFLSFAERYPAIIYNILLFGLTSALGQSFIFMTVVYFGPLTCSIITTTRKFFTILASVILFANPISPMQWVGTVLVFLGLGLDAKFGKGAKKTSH

[2] = target: T1, human SLC35B1 (wild type); experiment: Uptake of [3H]ATP or [3H]ADP into nucleotide-preloaded SLC35B1 proteoliposomes; format: biochemical; settings: for radiolabelled nucleotide uptake into proteoliposomes preloaded with the named nucleotide (individual replicates; ATP-loaded about 100): 2 minutes, sheet ED 6G, internal (preloaded) nucleotide as labelled; for [3H]ADP import with nucleotide preloading, relative to ATP preloading: liposomes preloaded with 1 mM nucleotide; for Single time point (1 min) uptake of [3H]-ADP by proteoliposomes preloaded with the nucleotide: preload 1 mM of the labelled nucleotide
[3] = target: T1, human SLC35B1 (wild type); experiment: IC50 for competitive inhibition of [3H]ADP uptake in proteoliposomes; format: biochemical; settings: for IC50: wild-type SLC35B1 proteoliposomes
[4] = target: T1, human SLC35B1 (wild type); format: binding; settings: for ΔTm, individual titrations (source data) / ΔTm (average melting temperature increase): 1 mM nucleotide; for ΔTm, individual titrations (source data): wild-type SLC35B1–GFP; for ΔTm (average melting temperature increase): purified wild-type SLC35B1–GFP; for GFP fluorescence after heating (source data Fig 1B): 1 mM substrate
[5] = target: T1, human SLC35B1 (wild type); experiment: STD NMR of nucleotide interaction with SLC35B1 proteoliposomes; format: binding; settings: for Total STD amplification factor (STD NMR signal): 500 μM substrate
[6] = external cold nucleotide 100 uM

Normalized SLC35B1-mediated uptake of [3H]ADP in competition with cold nucleotide [1]: strong competition
[3H]ADP import with nucleotide preloading, relative to ATP preloading [2]: approximately 30%
Normalized [3H]-ADP uptake activity (IC50 curve) ([3]; external cold nucleotide 0.1 uM, 0.1 µM): 98.9492 and 98.9864
activity at 0.1 µM ([3]; external cold nucleotide 0.1 uM, read-out: Normalized [3H]-ADP uptake activity (IC50 curve)): 102%
Normalized [3H]-ADP uptake activity (IC50 curve) ([3]; external cold nucleotide 1 uM, 1 µM): 96.2847 and 99.2915
activity at 1 µM ([3]; external cold nucleotide 1 uM, read-out: Normalized [3H]-ADP uptake activity (IC50 curve)): 90.8%
Normalized [3H]-ADP uptake activity (IC50 curve) ([3]; external cold nucleotide 10 uM, 10 µM): 69.0203 and 73.0881
activity at 10 µM ([3]; external cold nucleotide 10 uM, read-out: Normalized [3H]-ADP uptake activity (IC50 curve)): 65%
Normalized [3H]-ADP uptake activity (IC50 curve) ([3]; external cold nucleotide 100 uM, 100 µM): 29.139 and 27.9119
activity at 100 µM ([3]; external cold nucleotide 100 uM, read-out: Normalized [3H]-ADP uptake activity (IC50 curve)): 28.6%
Compound: O=c1ccn([C@@H]2O[C@H](CO[P@@](=O)(O)O[P@@](=O)(O)OP(=O)(O)O)[C@@H](O)[C@H]2O)c(=O)[nH]1 (stereo in doubt) [UTP, uridine triphosphate]
[3H]ADP uptake in the presence of cold competitor nucleotide (individual replicates; no-competitor control about 100) [1]: 11.6037 and 12.7556 and 12.0037 and 16.836 and 18.152 and 16.556
radiolabelled nucleotide uptake into proteoliposomes preloaded with the named nucleotide (individual replicates; ATP-loaded about 100) [2]: 26.76 and 31.4277 and 36.8954 and 31.1375 and 33.6917 and 28.9625

Normalized SLC35B1-mediated uptake of [3H]ADP in competition with cold nucleotide [1]: strong competition
[3H]ADP import with nucleotide preloading, relative to ATP preloading [2]: approximately 30%
ΔTm, individual titrations (source data) [4]: 2.66 and 3.39 and 2.37
Normalized [3H]-ADP uptake activity (IC50 curve) ([3]; external cold nucleotide 0.1 uM): 103.844 and 97.7104 and 98.4453
Normalized [3H]-ADP uptake activity (IC50 curve) ([3]; external cold nucleotide 1 uM): 95.8764 and 97.0509 and 95.3887
Normalized [3H]-ADP uptake activity (IC50 curve) ([3]; external cold nucleotide 10 uM): 67.7481 and 70.5094 and 62.095
Normalized [3H]-ADP uptake activity (IC50 curve) [3, 6]: 15.0773 and 20.2633 and 19.2811
IC50 [3]: 21 µM
Compound: Nc1ccn([C@@H]2O[C@H](COP(=O)(O)OP(=O)(O)OP(=O)(O)O)[C@@H](O)[C@H]2O)c(=O)n1 [CTP, cytidine triphosphate]
[3H]ADP uptake in the presence of cold competitor nucleotide (individual replicates; no-competitor control about 100) [1]: 12.014 and 11.0419 and 12.1535 and 17.168 and 20.672 and 19.484
radiolabelled nucleotide uptake into proteoliposomes preloaded with the named nucleotide (individual replicates; ATP-loaded about 100) [2]: 34.7169 and 32.8215 and 35.0431 and 28.1 and 30.3083 and 22.2

Compound: Nc1ccn([C@@H]2O[C@H](COP(=O)(O)OP(=O)(O)O)[C@@H](O)[C@H]2O)c(=O)n1 [CDP]
Normalized SLC35B1-mediated uptake of [3H]ADP in competition with cold nucleotide [1]: more effective at competition
[3H]ADP uptake in the presence of cold competitor nucleotide (individual replicates; no-competitor control about 100) [1]: 1.97 and 2.619 and 2.963 and 13.22 and 12.328 and 14.044

Compound: Nc1nc2c(ncn2[C@@H]2O[C@H](COP(=O)(O)OP(=O)(O)OP(=O)(O)O)[C@@H](O)[C@H]2O)c(=O)[nH]1 [GTP]
Normalized SLC35B1-mediated uptake of [3H]ADP in competition with cold nucleotide [1]: only weak competition
[3H]ADP uptake in the presence of cold competitor nucleotide (individual replicates; no-competitor control about 100) [1]: 82.2279 and 86.0047 and 83.9395 and 58.276 and 54.036 and 48.82
ΔTm (average melting temperature increase) [4]: poor thermostabilization
ΔTm, individual titrations (source data) [4]: 1.35 and 2.4 and 1.45
Normalized [3H]-ADP uptake activity (IC50 curve) ([3]; external cold nucleotide 1 uM): 88.1 and 101.287 and 103.95
Normalized [3H]-ADP uptake activity (IC50 curve) ([3]; external cold nucleotide 10 uM): 84.475 and 90.925 and 119.487
Normalized [3H]-ADP uptake activity (IC50 curve) [3, 6]: 92.075 and 105.213 and 83.1625
Normalized [3H]-ADP uptake activity (IC50 curve) ([3]; external cold nucleotide 1000 uM): 48.75 and 67.325 and 73.7625
Normalized [3H]-ADP uptake activity (IC50 curve) ([3]; external cold nucleotide 100000 uM): 2.4125 and 1.7125 and 1.675
IC50 [3]: 3500 µM
1H integral (off-resonance spectrum) [5]: 4.09E+10
STD integral [5]: 2.66E+09
Total STD amplification factor (STD NMR signal) [5]: low STD NMR signals

IC50 [3]: 29 µM and 29.1 µM
Compound: O=c1ccn([C@@H]2O[C@H](COP(=O)(O)OP(=O)(O)OP(=O)(O)O)[C@@H](O)[C@H]2O)c(=O)[nH]1 [UTP, uridine triphosphate]

Compound: Nc1ncnc2c1ncn2[C@@H]1O[C@H](COP(=O)(O)OP(=O)(O)OP(=O)(O)O)[C@@H](O)[C@H]1O [[^3H]ATP]
One-minute uptake of [3H]ATP by SLC35B1 proteoliposomes ([2]; Unloaded (preloaded with buffer)): 0.4851

ΔTm (average melting temperature increase) [4]: 1.1 °C
ΔTm, individual titrations (source data) [4]: 1.3 and 1.29 and 0.78
Compound: Nc1ncnc2c1ncn2[C@@H]1O[C@H](COP(=O)(O)O)[C@@H](O)[C@H]1O [AMP, adenosine monophosphate]
GFP fluorescence after heating (source data Fig 1B) ([4]; temperature 4): 106.601 and 104.432 and 95.3539 and 89.0072 and 98.5673 and 95.7555
GFP fluorescence after heating (source data Fig 1B) ([4]; temperature 10): 120.178 and 88.2039 and 92.06 and 93.2651
GFP fluorescence after heating (source data Fig 1B) ([4]; temperature 20): 106.039 and 98.5673 and 92.7027 and 90.0516 and 90.7747 and 95.3539
GFP fluorescence after heating (source data Fig 1B) ([4]; temperature 30): 90.132 and 77.6476 and 78.8286 and 77.1736 and 79.5837 and 81.6163
GFP fluorescence after heating (source data Fig 1B) ([4]; temperature 40): 21.7011 and 19.6043 and 15.5232 and 15.3143 and 15.5553 and 16.68
GFP fluorescence after heating (source data Fig 1B) ([4]; temperature 50): 5.771 and 5.947 and 3.195 and 3.312 and 3.387 and 3.526

Compound: O=c1ccn([C@@H]2O[C@H](COP(=O)(O)OP(=O)(O)O)[C@@H](O)[C@H]2O)c(=O)[nH]1 [UDP, uridine diphosphate]
Normalized SLC35B1-mediated uptake of [3H]ADP in competition with cold nucleotide [1]: more effective at competition
[3H]ADP uptake in the presence of cold competitor nucleotide (individual replicates; no-competitor control about 100) [1]: 0.8481 and 1.885 and 1.122 and 21.524 and 20.444 and 14.96

Compound: Nc1ncnc2c1ncn2[C@@H]1O[C@H](COP(=O)(O)OP(=O)(O)NP(=O)(O)O)[C@@H](O)[C@H]1O [AMP–PNP, adenylyl imidodiphosphate]
Single time point (1 min) uptake of [3H]-ADP by proteoliposomes preloaded with the nucleotide [2]: equivalent
Single time point (1 min) uptake of [3H]-ADP by proteoliposomes preloaded with the nucleotide ([2]; listed as AMP-PNP): 7.11 and 6.164 and 6.553
Normalized [3H]-ADP uptake activity (IC50 curve) ([3]; external cold nucleotide 0.01 uM, listed as ANP-PNP): 99.81 and 108.605 and 100.75 and 104.879 and 96.5643 and 94.0286
Normalized [3H]-ADP uptake activity (IC50 curve) ([3]; external cold nucleotide 0.1 uM, listed as ANP-PNP): 114.525 and 102.005 and 84.315 and 93.8643 and 84.5 and 91.8286
Normalized [3H]-ADP uptake activity (IC50 curve) ([3]; external cold nucleotide 1 uM, listed as ANP-PNP): 100.22 and 103.765 and 80.9 and 74.0571 and 74.9429
1H integral (off-resonance spectrum) [5]: 2.67E+09
STD integral [5]: 3.83E+08
Total STD amplification factor (STD NMR signal) [5]: equivalent
Total STD amplification factor (STD NMR signal) ([5]; listed as AMP-PNP): 7.167
